Measurements published in US10968214B2, “KRas G12C inhibitors” (Eli Lilly and Company, priority 2018, dated 2021).
Where “and” joins values, the source holds several entries; their conditions need not be identical. Identical values can stand only once. Like-named read-outs stand apart in the source and are kept apart here.

Legend:
[1] = system: SW837; test: CellTiterGlo Cell Proliferation Assay, SW837; type: cell-based; conditions: Homo sapiens, KRas G12C, Rectum, 96 hr
Experimental: (§1) A panel of tumor cell lines harboring KRas G12C or other KRas mutations are collected (Table 6). All cell lines are from ATCC or other sources indicated.
(§2) Typically cells are cultured in RPMI1640 or Dulbecco's modified Eagle's medium (DMEM, GIBCO) supplemented with 10% FBS (GIBCO, Invitrogen). For 2D culture cells (4×10^3/well) maintained in growth medium described above, are plated onto 96 well tissue culture plates Corning® Cat. 3603) a day before the treatment. For 3D culture 8000 cells/well are seeded onto 96 well ultra-low attachment tissue culture plates (Corning, #3474). The cells are treated compound for 96 hr, and then are analyzed for viability using the CellTiterGlo® Luminescent Cell Viability Assay® (Promega #G7572 for 2D and Promega #G9683 for 3D cultures) according to manufacturer's instructions and an EnVision™ plate reader. Nonlinear regression and sigmoidal dose-response curves are used to calculate the half maximal inhibitory concentration (IC50) with GraphPad Prism 4® software.

[2] = system: H358; test: Combination 4 day growth assay (Cell TiterGlo), H358; type: cell-based; conditions: Homo sapiens, NCI-H358, 96 h, single treatment, read-out: Absolute IC50
Experimental: (§3) Cell lines for this study are obtained from ATCC and grown under ATCC recommended conditions, except for LXFA-983L, which is obtained from Oncotest/Charles Rivers Laboratories, Wilmington, Mass. and D122-96, which is obtained from L. Eisenbach (Weizman Institute of Science, Rehovot, Israel)—both grown under recommended conditions. […] The proliferation assay is performed as a 4 day growth assay using Cell TiterGlo® as the readout. Briefly, cells are plated in 96-well cell culture plates and allowed to adhere overnight at 37° C. The following day, cells are treated with compounds, either single treatments or combination treatments. First, the testing compounds are serially diluted in DMSO, followed by dilution into media as a 5× concentration with 1% DMSO, and finally added to cells in media to dilute to 1×. The cells are incubated at 37° C. for 4 more days. At the end of the incubation period, Cell TiterGlo® reagent is mixed and added to the wells. After 10 minutes, the luminescence is read by a Perkin Elmer Envision instrument. Absolute IC50 values generated by a 4-parameter logistics model for the single and combination treatments are generated, followed by combination indexes for each combination treatment and cell line. The combination IC50 values are adjusted based on the total concentration of each compound when added together. […] The combination index (CI) measures the degree to which the potency of a combination therapy differs from the expected-if-additive potency and is based on the Loewe definition of additivity.
(§4) [formula] Where • CAy and CBy are the concentrations of therapies A and B that produce an effect, y, when given in combination • ICAy and ICBy are the concentrations of A and B that produce an effect, y, when given individually The biological interpretation of the combination index is as follows: synergistic if the combination index <0.5, additive if the combination index is between 0.5 and 2, and antagonistic if the combination index is >2.

[3] = system: EL3187 (PDX); test: Anti-tumor growth activity, EL3187 lung PDX; type: in vivo; conditions: for Tumor Growth Inhibition (%) or Regression (−%): EL3187 (PDX) Lung, 28 Day, negative = regression
[4] = system: SW1573; test: CellTiterGlo Cell Proliferation Assay, SW1573; type: cell-based; conditions: Homo sapiens, KRas G12C, Lung, 96 hr, read-out: IC50 (μM) in 2 D cell proliferation
Experimental: as §1, §2

[5] = system: LU-99; test: CellTiterGlo Cell Proliferation Assay, LU-99; type: cell-based; conditions: Homo sapiens, KRas G12C, Lung, 96 hr
Experimental: as §1, §2

[6] = system: A549; test: CellTiterGlo Cell Proliferation Assay, A549; type: cell-based; conditions: KRas G12S, lung, 96 hr; for IC50: Homo sapiens
Experimental: as §1, §2

[7] = system: UM-UC-3; test: CellTiterGlo Cell Proliferation Assay, UM-UC-3; type: cell-based; conditions: Homo sapiens, UMUC3, KRas G12C, Bladder, 96 hr
Experimental: as §1, §2

[8] = system: LXFA-983L; test: CellTiterGlo Cell Proliferation Assay, LXFA-983L; type: cell-based; conditions: KRas G12C, Lung, 96 hr
Experimental: as §1, §2

[9] = system: SW756; test: CellTiterGlo Cell Proliferation Assay, SW756; type: cell-based; conditions: Homo sapiens, KRas G12C, Cervix, 96 hr
Experimental: as §1, §2

[10] = system: Kyse-410; test: CellTiterGlo Cell Proliferation Assay, Kyse-410; type: cell-based; conditions: Homo sapiens, KRas G12C, Esophagus, 96 hr
Experimental: as §1, §2

[11] = system: SW1463; test: Combination 4 day growth assay (Cell TiterGlo), SW1463; type: cell-based; conditions: Homo sapiens, SW1463, 96 h, single treatment, read-out: Absolute IC50
Experimental: as §3, §4

[12] = read-out: IC50 (μM) in 2 D cell proliferation
[13] = read-out: IC50 (μM) in 3 D spheroid cell proliferation

**Q.** `C=CC(=O)N1CCN(c2ncnc3c(F)c(-c4ccc(F)c5sc(N)nc45)c(Cl)cc23)CC1` [Example 1, 1-{4-[7-(2-Amino-7-fluoro-1,3-benzothiazol-4-yl)-6-chloro-8-fluoroquinazolin-4-yl]piperazin-1-yl}prop-2-en-1-one] was tested. Which IC50 [1, 12] did it give?
**A.** 0.169 µM

**Q.** And the IC50 [1, 13]?
**A.** 0.126 µM

**Q.** What about the IC50 [2] of the same molecule?
**A.** 41.9 nM

**Q.** What about the “Tumor Growth Inhibition (%) or Regression (−%)” value (from here on “Tumor Growth Inhibition … (−%)”) ([3]; 5 mg/kg BID) of the same molecule?
**A.** −65%

**Q.** And the “Tumor Growth Inhibition … (−%)” value ([3]; 5 mg/kg QD)?
**A.** 94%

**Q.** What about the “Tumor Growth Inhibition … (−%)” value ([3]; 15 mg/kg BID) of the same molecule?
**A.** −80%

**Q.** What about the “Tumor Growth Inhibition … (−%)” value ([3]; 15 mg/kg QD) of the same molecule?
**A.** −75%

**Q.** What about the “Tumor Growth Inhibition … (−%)” value ([3]; 30 mg/kg BID, 30 mg/kg) of the same molecule?
**A.** −100% and −92.5%

**Q.** And the “Tumor Growth Inhibition … (−%)” value ([3]; 100 mg/kg BID)?
**A.** −100%

**Q.** And the “Tumor Growth Inhibition … (−%)” value ([3]; 100 mg/kg QD)?
**A.** −100%

**Q.** What about the “In Vivo Anti-Tumor Activities” value ([3]; EL3187 Lung PDX, Example 1 5 mg/kg QDx28) of the same molecule?
**A.** 94.8

**Q.** And the IC50 [4]?
**A.** 16.7 µM

**Q.** What about the IC50 [5, 12] of the same molecule?
**A.** 1.57 µM

**Q.** What about the IC50 [5, 13] of the same molecule?
**A.** 0.659 µM

**Q.** What about the IC50 [6, 12] of the same molecule?
**A.** 17.7 µM

**Q.** And the IC50 [6, 13]?
**A.** 5.94 µM

**Q.** And the “IC50 (μM) in 2 D cell proliferation” value [6]?
**A.** little activity

**Q.** What about the “IC50 (μM) in 3 D spheroid cell proliferation” value [6] of the same molecule?
**A.** little activity

**Q.** And the IC50 [7, 12]?
**A.** 0.124 µM

**Q.** And the IC50 [7, 13]?
**A.** 0.075 µM

**Q.** And the IC50 [8, 12]?
**A.** 1.34 µM

**Q.** What about the IC50 [8, 13] of the same molecule?
**A.** 0.05 µM

**Q.** What about the IC50 [9, 12] of the same molecule?
**A.** 1.15 µM

**Q.** And the IC50 [9, 13]?
**A.** 7.83 µM

**Q.** What about the IC50 [10, 12] of the same molecule?
**A.** 2.94 µM

**Q.** And the IC50 [10, 13]?
**A.** 0.471 µM

**Q.** What about the IC50 [11] of the same molecule?
**A.** 14.1 nM
